What was measured:
Serratia marcescens = details: normal temperature; cited from earlier work
Micrococcus luteus = details: normal temperature; cited from earlier work
[1] = mucosa of a nose and eyes; cited from earlier work
[2] = tested on: Vancomycin-resistent Enterococcus faecium; details: normal temperature; cited from earlier work
[3] = tested on: Methicillin-resistent Staphylococcus aureus; details: normal temperature; cited from earlier work
[4] = tested on: Corynebacterium amycolatum; details: normal temperature; cited from earlier work
Sterptococcus pyogenes = details: normal temperature; cited from earlier work
Enterobacter aerogenes = details: normal temperature; cited from earlier work
Klebsiella pneumoniae = details: normal temperature; cited from earlier work
Pseudomonas aeruginosa = details: normal temperature; cited from earlier work
[5] = HOCl versus OCl−; cited from earlier work
[6] = tested on: Staphylococcus haemolyticus; details: normal temperature; cited from earlier work
Escherichia coli = details: normal temperature; cited from earlier work
Haemophilus influenzae = details: normal temperature; cited from earlier work
[7] = tested on: Staphylococcus epidermidis; details: normal temperature; cited from earlier work
[8] = inside of a human body / mammal bodies; cited from earlier work
[9] = Half-life time of HOCl in water / outside the body (FIG. 16); assay type: physicochemical; details: water (medical sterilized normal saline), neutral or subacid, outside of human body
Description: Especially, HOCl generated in the medical sterilized normal saline is very unstable in neutral or subacid area, and thus is tend to be reduced to a half only for 3 minutes. Therefore, the free chlorines should be supplied to patients within 3 minutes from manufacturing the medical normal saline. […] Therefore, prompt supply into the body right after manufacturing the medical normal saline can obtain enough time to sterilize or kill germs, fungi, bacteria, the causes of diseases.
FIG. 16 is a graph of the amount of the free chlorine in accordance with the 20 seconds operation time.

Proteus mirabilis = details: normal temperature; cited from earlier work
Staphylococcus hominis = details: normal temperature; cited from earlier work
[10] = tested on: Staphylococcus saprophyticus; details: normal temperature; cited from earlier work
Staphylococcus aureus = details: normal temperature; cited from earlier work

- half-life [9]: 3 min
Structure (SMILES): OCl [HOCl, Hypochlorous acid]
- MBC (Serratia marcescens): 0.169 ppm
- MBC (Micrococcus luteus): 2.77 ppm
- concentration of HOCl that causes trouble on sensitive parts of human body and stench of the solution [1]: over 6 ppm
- MBC [2]: 2.73 ppm
- MBC [3]: 0.682 ppm
- MBC [4]: 0.169 ppm
- MBC (Sterptococcus pyogenes): 0.169 ppm
- MBC (Enterobacter aerogenes): 0.676 ppm
- MBC (Klebsiella pneumoniae): 1.7 ppm
- MBC (Pseudomonas aeruginosa): 0.35 ppm
- sterilizing efficacy relative to OCl− [5]: 80 times
- MBC [6]: 0.338 ppm
- MBC (Escherichia coli): 0.7 ppm
- MBC (Haemophilus influenzae): 0.338 ppm
- MBC [7]: 0.338 ppm
- half-life time [8]: 44 h
- MBC (Proteus mirabilis): 0.340 ppm
- MBC (Staphylococcus hominis): 1.4 ppm
- MBC [10]: 0.35 ppm
- MBC (Staphylococcus aureus): 0.173 ppm
